# Laboratory results from PMC9884808, “Pharmacokinetics, tissue distribution, and antitumor activity of a novel compound, NY-2, in non-small cell lung cancer” (Frontiers in Pharmacology, 2023).
# Key:
# [1] = test system: A549 cells; test: Colony formation assay; format: cell-based, human; settings: 2.5, 5, 10 μM; 9 days of growth
# [2] = test system: A549 cells; test: Wound-healing migration assay; format: cell-based, human; settings: 48 h
# Protocol: A wound-healing assay was used to assess the migration ability. Cells were seeded into 6-well plates at 3 × 10^5 cells per well. At about 90% confluence, uniform scratches were made in the monolayer using a sterile 200 μL pipet tip. After washing with phosphate-buffered saline (PBS), the cells were cultured in 2% FBS medium and photos were taken at 0 and 48 h. The rate of cell migration was determined by measuring the decrease in gap with compared to the initial gap at 0 h. Readings were performed independently in triplicate.
# [3] = Acute toxicity assay in KM mice; format: in vivo; settings: tail vein injection 1000 mg/kg in saline, 10 days observation, 6 animals per group
# Protocol: An acute toxicity assay was assessed in KM mice by tail vein injection of NY-2 dissolved in saline at a dose of 1000 mg/kg (6 animals per group).
# [4] = test system: Notch1 and integrinβ1; test: Western blot protein analysis; format: cell-based, human
# Text: Antibodies against ADAM17 (Cat. No. ab39163), Notch1 (Cat. No. ab52627), integrin β1 (Cat. No. ab52971), β-actin (Cat. No. ab8226), and anti-rabbit IgG (Cat. No. ab6728) and anti-mouse IgG (Cat. No. ab190475) secondary antibodies conjugated with horseradish peroxidase (HRP) were purchased from Abcam (Cambridge, United Kingdom). Total protein was extracted from HCC cells, and samples were separated by SDS-PAGE and blotted to polyvinylidene fluoride (PVDF) membranes (Millipore, Billerica, MA, United States). The membranes were blocked and then incubated with primary antibodies, followed by washing and incubation with HRP-conjugated secondary antibodies. Stained blots were developed with enhanced chemiluminescence reagents (Pierce, Rockford, IL, United States) and imaged on X-ray film.
# [5] = test system: A549 cells; test: Apoptosis, annexin-V/PI double staining; format: cell-based, human; settings: 48 h, control 0.86 ± .05%
# Protocol: For the apoptosis assay, cells were seeded into 6-well plates at 1× 10^5 cells per well, and after attachment for 4–6 h, they were incubated with different concentration of NY-2 for 48 h. After washing with 1×PBS, the cells were stained with Hoechst 33342 (5 μg/mL, 1 mL per well, C1022, Beyotime Biotechnology, China) for 20 min in a 37°C incubator followed by two washes with PBS. The number of apoptotic cells was counted under an inverted fluorescence microscope (Olympus, Japan). Apoptosis was also determined using an annexin V-FITC apoptosis detection kit (ABS50001, Absin Bioscience Inc., Shanghai, China). Cells were plated in 100 mm Petri dishes at a density of 1 × 10^6 cells/dish, after 4–6 h for attachment, cells were incubated with different concentrations of NY-2 for 48 h. For each sample, cells were harvested by trypsin digestion without EDTA and washed with 1 × PBS. Cells were resuspended in 300 μL of binding buffer, and 5 μL of annexin V-FITC solution were added and incubated at room temperature in the dark for 15 min, followed by the addition of 5 μL of propidium iodide (PI) solution. The sample staining was assessed by flow cytometry (BD Co., United States).
# [6] = Metabolic stability, liver microsome incubation; format: in vitro ADME; settings: 100 μM
# Protocol: Rat liver microsomes (RLMS) and human liver microsomes (HLMs) were purchased from RILD and BioIVT, respectively.The metabolic stability of 100 μm Zldi-8 and NY-2 in rat and human liver microsomes was investigated. Zldi-8/NY-2(100 ΜM)10 μl, mgcl210 ΜL, RLMs/HLMs 62.5 μl, PBS (ph 7.4)117.5 μl, NADPH 50 ΜL were added to the metabolic incubation system in ice bath, respectively.After adding in sequence, the incubation systems were pre-incubated for 3 min in a 37 ° C incubator, and then NADPH was added to start the reaction, and the incubation systems were removed at 0 min, 5 min, 10 min, 20 min, 30 min, 60 min, 90 min, 50 ΜL incubation solution was taken out respectively, and the reaction was stopped by rapidly adding equal volume of ice acetonitrile solution containing propranolol hydrochloride (internal standard) , vortex for 3 min, centrifugation at 4 ° C, 9500 rpm for 10 min, the content of the supernatant was determined by HPLC.The experiment was repeated three times in parallel.
# [7] = test system: HUVECs; test: MTT cytotoxicity on normal cells; format: cell-based, human; settings: concentration of 10 μM or below, 48 h
# Protocol: The human colorectal cancer cell lines, HCT116 and LoVo, the breast cancer cell line, T47D, the hepatocellular carcinoma cell line, HepG2, the normal human liver cell line, HL7702, human umbilical vein endothelial cells (HUVECs), and the non-small cell lung cancer cell lines, A549, H1993, HCC827, H460, were purchased from the American Type Culture Collection (Manassas, VA, United States). Cell lines were cultured in the recommended RPMI-1640 medium (AE24464298, Hyclone, United States) and DMEM medium (AE29422278, Hyclone, United States) supplemented with 10% fetal bovine serum (FBS; JC63470, FB15015, Clark, United States) with 1% penicillin-streptomycin. […]
# Cell viability was measured by the MTT assay. […] An assay kit (WLA073, Wanlei Co., Liaoning, China), was used according to the manufacturer’s instructions to measure LDH activity, The absorbance at 450 nm was measured with a microplate reader (Elx-800, Bio-Rad, China).
# First, the effects of NY-2 and ZLDI-8 on the survival rates of four NSCLC cell lines, A549, H1993, HCC827, H460, were compared by the MTT cytotoxicity assay. The various types of NSCLC cells were incubated with increasing concentrations of NY-2 and ZLDI-8 (1.25, 2.5, 5, 10, and 20 μM), and the cell viability at 48 h was measured. […]
structure (smiles),measurement,setting,value
Cc1c(C=C2C(=O)NC(=S)NC2=O)c2ccccc2n1CCOc1ccc(F)cc1 [NY-2],colony formation of A549 cells,[1],inhibit colony formation of A549 cells in a concentration-dependent manner
same,migration of A549 cells,[2],inhibit the invasion and migration of A549 cells in a concentration-dependent manner
same,deaths in acute toxicity assay,[3],no deaths occurred
same,expression of Notch1 and integrinβ1,[4],reduced the expression of Notch1 and integrinβ1in a dose-dependence manner
same,percentage of A549 cells in apoptosis,[5]; 5 μM,5.45 ± 3.28%
same,percentage of A549 cells in apoptosis,[5]; 10 μM,20.29 ± 3.11%
same,residual level (metabolic stability),[6]; human liver microsomes,greater than that of ZLDI-8
same,residual level (metabolic stability),[6]; rat liver microsomes,greater than that of ZLDI-8
same,cytotoxic effects on HUVEC cells,[7],no obvious cytotoxic effects
